Data: patent US11590089B2, “Beta-2 selective adrenergic receptor agonists” (The Board of Trustees of the Leland Stanford Junior …, priority 2017, dated 2023)
pEC50, pKi: −log10 of the molar value. Where a name gives a salt, the structure may show the parent alone. Read-outs that look alike come from different tables or passages of the source.

Key:
β2-AR [1] = molecular target: T1, β2-AR (Homo sapiens, UniProt P07550); assay: β-arrestin-2 recruitment assay at β2-AR; assay type: cell-based; conditions: for pEC50: ranges from screening experiments with a low number of repeats; for β-arrestin-2 recruitment β2-AR Emax: relative to norepinephrine
Target sequence in this assay (P07550 whole entry): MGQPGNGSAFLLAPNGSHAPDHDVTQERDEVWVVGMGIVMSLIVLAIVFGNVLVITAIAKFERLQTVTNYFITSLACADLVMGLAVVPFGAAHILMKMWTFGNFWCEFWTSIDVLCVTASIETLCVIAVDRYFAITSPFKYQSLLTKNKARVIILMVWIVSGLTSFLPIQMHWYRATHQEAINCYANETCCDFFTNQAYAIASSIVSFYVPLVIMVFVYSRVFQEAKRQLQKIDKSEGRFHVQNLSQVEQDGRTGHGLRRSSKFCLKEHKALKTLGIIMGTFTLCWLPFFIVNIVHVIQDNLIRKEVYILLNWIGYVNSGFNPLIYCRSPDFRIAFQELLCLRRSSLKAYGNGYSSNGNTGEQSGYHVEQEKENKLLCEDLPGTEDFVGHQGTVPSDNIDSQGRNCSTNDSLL
Target sequence in this assay (P32121 whole entry partner): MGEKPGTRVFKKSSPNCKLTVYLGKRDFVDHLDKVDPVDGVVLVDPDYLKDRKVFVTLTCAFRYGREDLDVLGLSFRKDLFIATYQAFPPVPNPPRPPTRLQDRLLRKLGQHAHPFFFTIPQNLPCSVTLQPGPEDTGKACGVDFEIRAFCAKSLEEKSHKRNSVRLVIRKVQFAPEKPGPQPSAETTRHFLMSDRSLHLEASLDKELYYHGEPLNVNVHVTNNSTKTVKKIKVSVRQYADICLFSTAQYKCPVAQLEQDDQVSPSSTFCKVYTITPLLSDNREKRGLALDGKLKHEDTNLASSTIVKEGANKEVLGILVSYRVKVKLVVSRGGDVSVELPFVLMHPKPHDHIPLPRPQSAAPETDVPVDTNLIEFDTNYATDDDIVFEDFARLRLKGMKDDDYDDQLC

β1-AR [2] = molecular target: T2, β1-AR (Homo sapiens, UniProt P08588); assay: radioligand binding assay, β1-AR, [3H]CGP12177; conditions: values given as a range are from screening experiments with a low number of repeats
Procedure: (§1) The binding affinities of exemplary compounds of interest at β1AR and β2AR were evaluated in a binding assay.
Target sequence in this assay (P08588 whole entry): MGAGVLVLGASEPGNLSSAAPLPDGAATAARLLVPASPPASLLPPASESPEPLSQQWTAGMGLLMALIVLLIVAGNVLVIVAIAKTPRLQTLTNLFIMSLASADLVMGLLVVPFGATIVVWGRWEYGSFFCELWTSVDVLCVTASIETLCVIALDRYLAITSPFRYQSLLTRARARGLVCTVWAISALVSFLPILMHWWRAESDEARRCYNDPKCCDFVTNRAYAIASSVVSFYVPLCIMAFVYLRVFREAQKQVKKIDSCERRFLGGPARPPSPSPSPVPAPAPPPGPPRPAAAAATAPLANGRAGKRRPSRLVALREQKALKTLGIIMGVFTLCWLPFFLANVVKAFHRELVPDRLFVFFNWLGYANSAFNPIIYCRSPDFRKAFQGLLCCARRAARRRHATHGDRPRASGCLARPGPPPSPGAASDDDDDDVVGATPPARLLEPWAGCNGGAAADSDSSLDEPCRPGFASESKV

β2-AR [3] = molecular target: T1, β2-AR; assay: radioligand binding assay, β2-AR, [3H]CGP12177
Procedure: as §1
Target sequence in this assay (P07550 whole entry): as the sequence (P07550 whole entry) above

β1-AR [4] = molecular target: T2, β1-AR; assay: β-arrestin-2 recruitment assay at β1-AR; assay type: cell-based; conditions: for β-arrestin-2 recruitment β1-AR Emax: relative to norepinephrine
Target sequence in this assay (P08588 whole entry): as the sequence (P08588 whole entry) above
Target sequence in this assay (P32121 whole entry partner): as the sequence (P32121 whole entry partner) above

α2A-AR = molecular target: T3, α2A-AR (Homo sapiens, UniProt P08913); assay: radioligand binding assay, α2A-AR, [3H]RX821002; conditions: radioligand [3H]RX821002; values given as a range are from screening experiments with a low number of repeats
T3 sequence (P08913 1-465): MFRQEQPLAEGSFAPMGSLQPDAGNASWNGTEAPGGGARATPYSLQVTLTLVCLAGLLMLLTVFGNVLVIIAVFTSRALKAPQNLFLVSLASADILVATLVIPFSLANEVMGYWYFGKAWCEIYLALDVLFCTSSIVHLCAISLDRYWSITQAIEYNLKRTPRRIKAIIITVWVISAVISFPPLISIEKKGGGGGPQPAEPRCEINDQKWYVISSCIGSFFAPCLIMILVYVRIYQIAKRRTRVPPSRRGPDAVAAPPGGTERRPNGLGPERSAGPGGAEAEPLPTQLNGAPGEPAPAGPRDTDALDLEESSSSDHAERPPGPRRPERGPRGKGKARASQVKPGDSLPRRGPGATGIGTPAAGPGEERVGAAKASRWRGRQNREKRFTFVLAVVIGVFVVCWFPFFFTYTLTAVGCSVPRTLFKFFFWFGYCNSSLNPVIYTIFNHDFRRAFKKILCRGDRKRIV

•1A-AR = molecular target: T4, •1A-AR (Homo sapiens, UniProt P35348); assay: radioligand binding assay, α1A-AR, [3H]prazosin
T4 sequence (P35348 1-466): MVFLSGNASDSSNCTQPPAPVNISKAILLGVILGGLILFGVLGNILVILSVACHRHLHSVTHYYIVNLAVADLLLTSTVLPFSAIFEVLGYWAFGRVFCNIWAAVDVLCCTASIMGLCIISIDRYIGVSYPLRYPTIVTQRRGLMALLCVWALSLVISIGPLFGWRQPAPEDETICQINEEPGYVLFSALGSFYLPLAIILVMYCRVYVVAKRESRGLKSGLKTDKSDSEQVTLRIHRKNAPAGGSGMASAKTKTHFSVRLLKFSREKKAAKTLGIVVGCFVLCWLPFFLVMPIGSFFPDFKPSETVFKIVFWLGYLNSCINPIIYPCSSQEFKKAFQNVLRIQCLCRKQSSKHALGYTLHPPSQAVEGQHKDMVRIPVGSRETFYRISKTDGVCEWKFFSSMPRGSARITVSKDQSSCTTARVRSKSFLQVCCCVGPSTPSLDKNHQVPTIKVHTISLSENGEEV

[5] = n.d. = could not be determined because of lack of activity, read-out: β-arrestin-2 recruitment β2-AR EC50
[6] = radioligand [3H]CGP12177, read-out: Ki β1-AR [3H]CGP12177
[7] = radioligand [3H]CGP12177, values given as a range are from screening experiments with a low number of repeats, read-out: Ki β2-AR [3H]CGP12177
[8] = β-arrestin-2 recruitment β2-AR EC50, n.d. = could not be determined because of lack of activity
[9] = Ki β1-AR [3H]CGP12177, radioligand [3H]CGP12177
[10] = radioligand [3H]prazosin, values given as a range are from screening experiments with a low number of repeats, read-out: Ki •1A-AR [3H]prazosin
[11] = n.d. = could not be determined because of lack of activity, ranges from screening experiments with a low number of repeats, read-out: β-arrestin-2 recruitment β1-AR EC50

Structure (SMILES) | pEC50 (β2-AR [1]; [5]) | β-arrestin-2 recruitment β2-AR Emax (β2-AR [1]) [% norepinephrine] | pKi (β1-AR [2]; [6]) | pKi (β2-AR [3]; [7]) | β-arrestin-2 recruitment β1-AR Emax (β1-AR [4]) [% norepinephrine] | pKi (α2A-AR) | also measured
CNC1CCc2cc(O)c(O)cc2C1 (racemic) [AS LM31] | 4.92 | 22 | 4.36 | 4.10 | <5 |  | 
CNC1CCc2c(ccc(O)c2O)C1 (racemic) [AS LM33] | 5.68 | 125 | 4.05 | 4.34 | <10 |  | 
CC(C)N[C@H]1CCc2cc(O)c(O)cc2[C@H]1O (relative stereo) [JS 3-71, cis-2-(isopropylamino)-1,2,3,4-tetrahydronaphthalene-1,6,7-triol trifluoroacetate] |  |  | < 4.30 | < 4.30 |  |  | 
CC(C)N[C@@H]1CCc2cc(O)c(O)cc2[C@H]1O (relative stereo) [JS 3-89, trans-2-(Isopropylamino)-1,2,3,4-tetrahydronaphthalene-1,6,7-triol trifluoroacetate] |  |  | < 4.30 | < 4.30 |  |  | 
NC1CCc2c(ccc(O)c2O)C1 (single isomer, unassigned) [AS LM27] | 5.68 | 84 | 4.34 | 5.12 | <5 |  | 
NC1CCc2c(ccc(O)c2O)C1 (single isomer, unassigned) [AS LM28] | 4.96 | 77 | < 4.00 | 4.54 | <10 |  | 
CC(C)N[C@@H]1CCc2c(ccc(O)c2O)[C@H]1O [AS424A, (R,R)-1,5,6-trihydroxy-N-isopropyl-1,2,3,4-tetrahydronaphthalen-2-aminium TFA] |  | 103 |  |  | 82 | 4.15 | pEC50 (β2-AR [1]; [8]): 7.62; pKi (β1-AR [2]; [9]): 5.68; selectivity for β2-AR over β1-AR (β2-AR [3]): high selectivity; pKi (β2-AR [3]; read-out: Ki β2-AR [3H]CGP12177): 7.49; pEC50 (β1-AR [4]): 5.92
CC(C)N[C@H]1CCc2c(ccc(O)c2O)[C@H]1O [AS424B, (R,S)-1,5,6-trihydroxy-N-isopropyl-1,2,3,4-tetrahydronaphthalen-2-aminium TFA] |  | 91 |  |  |  |  | pEC50 (β2-AR [1]; [8]): 6.46; pKi (β1-AR [2]; [9]): 4.62; pKi (β2-AR [3]; Ki β2-AR [3H]CGP12177): 6.35
CN[C@@H]1CCc2c(ccc(O)c2O)[C@H]1O [AS443, (5R,6R)-6-(methylamino)-5,6,7,8-tetrahydronaphthalene-1,2,5-triol] | 7.59 | 112 | 4.42 | 6.85 | 60 | 4.89 | pKi (•1A-AR; [10]): 4.77; pEC50 (β1-AR [4]; [11]): 4.42
N[C@@H]1CCc2c(ccc(O)c2O)[C@H]1O [AS446, (5R,6R)-6-amino-5,6,7,8-tetrahydronaphthalene-1,2,5-triol×TFA] |  | 107 | 4.80 | 6.17 | 56 | 4.82 | pEC50 (β2-AR [1]; [8]): 7.00; pKi (•1A-AR): 4.74; pEC50 (β1-AR [4]; [11]): 4.74
N[C@H]1CCc2cc(O)c(O)cc2C1 [AS LM15] |  | <5 | 4.51 |  | <5 |  | 
N[C@@H]1CCc2cc(O)c(O)cc2C1 [AS LM16] |  | <5 | 4.08 | 4.12 | <5 |  | 
O=C(O)C(F)(F)F.Oc1ccc2c(c1O)CC[C@H](NC1CCCC1)[C@H]2O [JS 3-51, (1 S,2S)-6-(cyclopentylamino)-5,6,7,8-tetrahydronaphthalene-1,2,5-triol trifluoroacetate] | 6.92 | 93 | 4.57 | 6.62 |  |  | 
Oc1ccc2c(c1O)CC[C@H](NC1CCCC1)[C@@H]2O [JS 3-55, (1R,2S)-6-(cyclopentylamino)-5,6,7,8-tetrahydronaphthalene-1,2,5-triol trifluoroacetate] |  |  | < 4.30 | < 4.70 |  |  | 
Oc1ccc2c(c1O)CC[C@@H](NC1CCCC1)[C@H]2O [JS 3-65, (1 S,2R)-6-(Cyclopentylamino)-5,6,7,8-tetrahydronaphthalene-1,2,5-triol trifluoroacetate] |  |  | < 4.30 | 5.60 |  |  | 
CC(C)N[C@H]1CCc2c(ccc(O)c2O)[C@@H]1O [JS 3-97] |  |  |  |  |  |  | pKi (β1-AR [2]; [9]): < 4.30; pKi (β2-AR [3]; Ki β2-AR [3H]CGP12177): 6.43
CC(C)N[C@@H]1CCc2c(ccc(O)c2O)[C@@H]1O [JS 3-99] |  | 100 |  |  |  |  | pEC50 (β2-AR [1]; [8]): 5.92; pKi (β1-AR [2]; [9]): 4.31; pKi (β2-AR [3]; Ki β2-AR [3H]CGP12177): 5.72
O=C(O)C(F)(F)F.Oc1ccc2c(c1O)CC[C@@H](NC1CCCC1)[C@@H]2O [JS 3-159, (1R,2R)-6-(Cyclopentylamino)-5,6,7,8-tetrahydronaphthalene-1,2,5-triol trifluoroacetate] | 7.74 | 97 | 5.15 | 7.60 |  |  | 
Oc1ccc2c(c1O)CC[C@@H](NCCCF)[C@@H]2O [LM 75, (5R,6R)-6-((3-fluoropropyl)amino)-5,6,7,8-tetrahydronaphthalene-1,2,5-triol] | 7.60 | 111 | 5.12 | 7.01 | 90 | 4.74 | pKi (•1A-AR): 4.64; pEC50 (β1-AR [4]; [11]): 5.00
Oc1ccc2c(c1O)CC[C@@H](NCCF)[C@@H]2O [LM 80, (5R,6R)-6-((2-fluoroethyl)amino)-5,6,7,8-tetrahydronaphthalene-1,2,5-triol] | 7.18 | 110 | 5.15 | 6.55 | 81 | 4.52 | pKi (•1A-AR; [10]): < 4.05; pEC50 (β1-AR [4]; [11]): 5.52
Oc1ccc2c(c1O)CC[C@@H](NC(CF)CF)[C@@H]2O [LM 103, (5R,6R)-6-((1,3-difluoropropan-2-yl)amino)-5,6,7,8-tetrahydronaphthalene-1,2,5-triol] | 6.19 | 109 | 5.00 | 6.20 | 18 | 4.28 | pKi (•1A-AR; [10]): < 4.00; pEC50 (β1-AR [4]; [11]): 4.92
Oc1ccc2c(c1O)CC[C@@H](NCC1CCC1)[C@@H]2O [LM 110, (5R,6R)-6-((cyclobutylmethyl)amino)-5,6,7,8-tetrahydronaphthalene-1,2,5-triol] |  | 116 | 4.29 | 6.77 | 25 | 5.00 | pEC50 (β2-AR [1]; [8]): 7.10; pKi (•1A-AR): 5.40; pEC50 (β1-AR [4]; [11]): 4.66
Oc1ccc2c(c1O)CC[C@@H](NCC1CC(F)(F)C1)[C@@H]2O [LM 112, (5R,6R)-6-(((3,3-difluorocyclobutyl)methyl)amino)-5,6,7,8-tetrahydronaphthalene-1,2,5-triol] | 7.70 to 8.00 | 124 | 4.92 to 5.30 | 7.15 to 7.60 | 45 | 4.82 to 5.10 | pKi (•1A-AR): 5.10 to 5.30; pEC50 (β1-AR [4]; [11]): 4.85 to 5.22
NC[C@H](O)c1ccc(O)c(O)c1 [noradrenaline, reference compound] |  | 100 |  |  | 100 |  | 
